{
  "source": "patent US7879795B2",
  "about": "“Enhancement of tigecycline potency using efflux pump inhibitors” (Mpex Pharmaceuticals, Inc., priority 2004, dated 2011)",
  "key": {"[1]": {"test": "Stability in human kidney tissue preparations", "format": "in vitro ADME", "conditions": "in words", "description": "The pattern of in vitro stability of compound 3 (stable in serum but unstable in tissues) observed in rodents was also reproduced using human kidney tissues or serum. FIG. 7 compares the in vitro stability of compounds 1 and 3 in human kidney tissue preparations.\nFIG. 8 depicts formation of the metabolite, compound 67, in human kidney tissue. Concomitant with the disappearance of compound 3, generation of the expected metabolite of the presumed intralysosomal degradation, compound 67, was detected using human kidney."}, "[2]": {"test": "Acute toxicity, minimal lethal dose after IV bolus in mice", "format": "in vivo, mouse", "conditions": "IV bolus into tail vein, lethal for at least one of three mice", "procedure": "Acute toxicity was measured as minimal lethal dose (MLD). MLD is defined as a minimal concentration of a compound that has lethal effect for at least one mouse from the group of three mice after IV bolus injection into the mouse tail vein."}, "[3]": {"test_system": "laboratory strains of P. aeruginosa", "test": "Tigecycline susceptibility of laboratory strains of P. aeruginosa over-expressing or lacking efflux pumps", "format": "cell-based", "procedure": "(§1) The ability of compound 21 to increase susceptibility to tigecycline was also assessed. The tigecycline potentiating activity of compound 21 was assessed by the checkerboard assay (Antimicrobial Combinations, Antibiotics in Laboratory Medicine, ed. Victor Lorian, M.D., Fourth edition, 1996, pp 333-338, which is incorporated herein by reference in its entirety) using a broth micro-dilution method performed as recommended by the CSLI (Clinical and Laboratory Standards Institute, formerly NCCLS) guidelines (National Committee for Clinical Laboratory Standards 2003. Methods for Dilution Antimicrobial Susceptibility Tests for Bacteria That Grow Aerobically—Sixth Edition; Approved Standard. NCCLS Document M7-A6, Vol 20 No. 2). In this assay, multiple dilutions of the two drugs, compound 21 and tigecycline, were tested alone and in combination, at concentrations equal to, above and below their respective minimal inhibitory concentrations (MICs). […] The stock solution was further diluted in Mueller Hinton Broth (MHB). Stock solutions were stored at −80° C.\n(§2) The checkerboard assay was performed in microtiter plates. Tigecycline was diluted in the x axis, each column containing a single concentration of tigecycline. Compound 21 was diluted in the y axis, each row containing an equal concentration of the EPI. […] The assay was performed in MHB with a final bacterial inoculum of 5×10^5 CFU/ml (from an early-log phase culture). The microtiter plates were incubated for 20 hours at 35° C. and then read using a microtiter plate reader (Molecular Devices) at 650 nm, as well as by visual observation using a microtiter plate-reading mirror."}, "[4]": {"test_system": "PAM 1032, nalB, MexAB-OprM over-expressed", "test": "microbe, parasite or virus in culture", "format": "cell-based, P. aeruginosa", "parameters": "Tigecycline MIC in the presence of Compound 21: unit not given here", "conditions": "PAM 1032", "procedure": "as §1, §2\nP. aeruginosa strain PAM 1032 was grown in Mueller-Hinton Broth (MHB) at 35° C. under constant aeration. After 20 hours, the inoculum was sub-cultured into fresh MHB and allowed to regrow at 35° C., under constant aeration, for 4 hours. The inoculum was adjusted to ca. 4×10^7 CFU/ml by correlation of absorbance at 600 nm with predetermined plate counts. The inoculum was then diluted 2-fold in 14% hog-gastric mucin (Sigma, St. Louis, Mo.) for a final inoculum concentration of 2×10^7 CFU/ml. […] At 0 and 2 hours following infection, tigecycline was administered by the subcutaneous route and compound 21 was administered by the intraperitoneal route."}, "[5]": {"test_system": "PAM 1626, Four pumps non-functional", "test": "Tigecycline potentiation checkerboard assay, PAM 1626", "format": "cell-based, P. aeruginosa", "parameters": "Tigecycline MIC in the presence of Compound 21: unit not given here", "conditions": "PAM 1626", "procedure": "as §1, §2"}, "[6]": {"test_system": "110 clinical isolates of P. aeruginosa", "test": "Tigecycline susceptibility of P. aeruginosa clinical isolates with fixed concentration of compound 21", "format": "cell-based", "procedure": "(§3) To further characterize the clinical potential of tigecycline/EPI combinations, the microbiological activity of tigecycline in combination with compound 21 was investigated using clinical isolates of P. aeruginosa and other gram-negative bacteria. In several experiments, described below, the impact of a fixed concentration of compound 21 (2.5 μg/ml) on susceptibility to tigecycline was determined.\nResults from an experiment using 110 clinical isolates of P. aeruginosa are presented in FIG. 1, as the distribution of tigecycline MICs with or without the EPI potentiator."}, "[7]": {"test_system": "Enterobacter cloacae 25", "test": "Antibiotic MIC with fixed concentration of compound 21, Enterobacter cloacae 25", "format": "cell-based"}, "[8]": {"test_system": "Citrobacter freundii 13", "test": "Antibiotic MIC with fixed concentration of compound 21, Citrobacter freundii 13", "format": "cell-based", "procedure": "as §3\n(§4) The impact of compound 21 on the activity of tigecycline against representative members of Enterobacteriacaea was also tested."}, "[9]": {"test_system": "strains of Klebsiella, Enterobacter and Citrobacter", "test": "Potentiation of tigecycline against enterobacteria with decreased susceptibility to tigecycline", "format": "cell-based", "conditions": "in words", "procedure": "as §3, §4"}, "[10]": {"test_system": "Burkholderia, Proteus, Morganella, Providencia and Serratia", "test": "Potentiation of tigecycline against other gram-negative clinical isolates", "format": "cell-based", "conditions": "in words", "procedure": "as §3\nStrains with decreased susceptibility to tigecycline were also present among representatives of Burkholderia, Proteus, Morganella, Providencia and Serratia. […] While not being bound by any particular theory, it is probable that the lack of potentiation by compound 21 is due to limited uptake of this particular EPI across the outer membrane of these bacteria, rather than the absence of efflux pumps."}, "[11]": {"test_system": "Enterobacteriaceae, Acinetobacter, Burkholderia, Stenotrphomonas, Staphylococcus", "conditions": "Example 86, written in present tense"}, "[12]": {"test": "Solubility in water (stock solutions)", "conditions": "stock solutions 10 mg/ml"}, "[13]": {"conditions": "tigecycline with compound 21 at fixed […], 110 clinical isolates"}, "[14]": {"conditions": "azithromycin MIC with compound 21"}, "[15]": {"conditions": "levofloxacin MIC with compound 21 at […]"}, "[16]": {"conditions": "tigecycline MIC with compound 21 at […]"}},
  "data": [
    {"smiles": "NCCC[C@H](N)C(=O)N[C@H](CCc1ccccc1)C(=O)Nc1cnc2ccccc2c1", "note": "[Compound 3, 2-(S),5-Diamino-pentanoic acid [3-phenyl-1-(R)-(quinolin-3-ylcarbamoyl)-propyl]-amide]", "values": [
      {"measurement": "degradation in homogenates prepared from frozen cadaverous human kidney", "setting": "[1]", "value": "Time-dependent degradation"},
      {"measurement": "pH dependence of degradation in human kidney homogenates", "setting": "[1]", "value": "stronger at lower pH"},
      {"measurement": "MLD (minimal lethal dose)", "setting": "[2]", "value": 25, "unit": "mg/kg"}
    ]},
    {"smiles": "NCCC[C@H](N)C(=O)N[C@H](Cc1ccc(C(F)(F)F)cc1)C(=O)Nc1cnc2ccccc2c1", "note": "[Compound 21, 2-(S),5-Diamino-pentanoic acid [1-(R)-(quinolin-3-ylcarbamoyl)-2-(4-trifluoromethyl-phenyl)-ethyl]amide]", "values": [
      {"measurement": "effect on activity of tigecycline against strains expressing efflux pumps", "setting": "[3]; in words", "value": "increases activity to tigecycline"},
      {"measurement": "concentration required to completely inhibit the efflux pumps", "setting": "[3]; tigecycline checkerboard", "value": 2.5, "unit": "µg/mL"},
      {"measurement": "Tigecycline MIC in the presence of Compound 21", "setting": "[4]; Compound 21 0.625 μg/ml", "value": 4},
      {"measurement": "Tigecycline MIC in the presence of Compound 21", "setting": "[4]; Compound 21 1.25 μg/ml", "value": 2},
      {"measurement": "Tigecycline MIC in the presence of Compound 21", "setting": "[4]; Compound 21 5 μg/ml", "value": 0.5},
      {"measurement": "Tigecycline MIC in the presence of Compound 21", "setting": "[4]; Compound 21 10 μg/ml", "value": 0.5},
      {"measurement": "Tigecycline MIC in the presence of Compound 21", "setting": "[4]; Compound 21 20 μg/ml", "value": 0.5},
      {"measurement": "Tigecycline MIC in the presence of Compound 21", "setting": "[4]; Compound 21 40 μg/ml", "value": 0.5},
      {"measurement": "Tigecycline MIC in the presence of Compound 21", "setting": "[4]; Compound 21 […]", "value": 0.5},
      {"measurement": "Tigecycline MIC in the presence of Compound 21", "setting": "[5]; Compound 21 0.625 μg/ml", "value": 0.25},
      {"measurement": "Tigecycline MIC in the presence of Compound 21", "setting": "[5]; Compound 21 1.25 μg/ml", "value": 0.25},
      {"measurement": "Tigecycline MIC in the presence of Compound 21", "setting": "[5]; Compound 21 5 μg/ml", "value": 0.25},
      {"measurement": "Tigecycline MIC in the presence of Compound 21", "setting": "[5]; Compound 21 10 μg/ml", "value": 0.25},
      {"measurement": "Tigecycline MIC in the presence of Compound 21", "setting": "[5]; Compound 21 20 μg/ml", "value": 0.5},
      {"measurement": "Tigecycline MIC in the presence of Compound 21", "setting": "[5]; Compound 21 […]", "value": 0.25},
      {"measurement": "reduction of tigecycline MIC50 and MIC90 of the population", "setting": "[6]; compound 21 at […]", "value": 8, "unit": "fold"},
      {"measurement": "strains that responded to compound 21", "setting": "[6]; individual strains tested", "value": 98, "unit": "%"},
      {"measurement": "MIC50, Tigecycline + EPI", "setting": "[6]; [13]", "value": 0.25, "unit": "µg/mL"},
      {"measurement": "MIC90, Tigecycline + EPI", "setting": "[6]; [13]", "value": 1, "unit": "µg/mL"},
      {"measurement": "Azi + EPI (MIC)", "setting": "[7]; [14]", "value": "≦0.125"},
      {"measurement": "Levo + EPI at […] (MIC)", "setting": "[7]; [15]", "value": 0.5},
      {"measurement": "Tig + EPI at […] (MIC)", "setting": "[7]; [16]", "value": 0.5},
      {"measurement": "Azi + EPI (MIC)", "setting": "[8]; [14]", "value": "≦0.125"},
      {"measurement": "Levo + EPI at […] (MIC)", "setting": "[8]; [15]", "value": 8},
      {"measurement": "Tig + EPI at […] (MIC)", "setting": "[8]; [16]", "value": 0.125},
      {"measurement": "potentiation of tigecycline against strains with decreased susceptibility", "setting": "[9]", "value": "potentiated tigecycline"},
      {"measurement": "effect on susceptibility to tigecycline", "setting": "[10]", "value": "did not decreased susceptibility to tigecycline"},
      {"measurement": "effect on tigecycline resistance and emergence of resistance", "setting": "[11]", "value": "reduces tigecycline resistance and emergence of resistance"},
      {"measurement": "solubility in water", "setting": "[12]", "value": "readily soluble in water"}
    ]}
  ]
}
